Source: patent US11116760B2 (Gilead Sciences, Inc., priority 2018, dated 2021)

biological target: α4β7 integrin (Homo sapiens (Human), UniProt P13612+P26010); assay: α4β7 Integrin Cell Capture Assay; type: cell-based; details: RPMI8866 cells captured on MadCAM-1 extracellular domain-coated plate
Procedure: α4β7 Integrin Cell Capture Assay
The potency of inhibitors in preventing α4β7 integrin interaction with MadCAM-1 was measured by monitoring the capture of α4β7 integrin expressing cells on a recombinant MadCAM-1 extracellular domain-coated plate. […] The plates were then washed with PBS and blocked with 3% BSA for 2 hours before being washed again.
RPM18866 cells were spun down and re-suspended in assay medium (DMEM+0.5% FBS+0.5 mM MnCl2) at a density of 0.5×10^6 cells/mL. […] The plates were incubated at 37° C. for 1 hour. 50 μL of cells were transferred to the blocked, MadCAM-1-coated plates and incubated for 30 minutes at 37° C. […] The plates were incubated for 90 minutes at room temperature. The plates were then washed 3 times with 70 μL of PBS per well and imaged on a Cellomics ArrayScan instrument. The cells that were bound to the plate were counted and plotted against the compound concentration to determine the EC50 of the test compounds.

Chain of α4β7 integrin (P13612 34-1032): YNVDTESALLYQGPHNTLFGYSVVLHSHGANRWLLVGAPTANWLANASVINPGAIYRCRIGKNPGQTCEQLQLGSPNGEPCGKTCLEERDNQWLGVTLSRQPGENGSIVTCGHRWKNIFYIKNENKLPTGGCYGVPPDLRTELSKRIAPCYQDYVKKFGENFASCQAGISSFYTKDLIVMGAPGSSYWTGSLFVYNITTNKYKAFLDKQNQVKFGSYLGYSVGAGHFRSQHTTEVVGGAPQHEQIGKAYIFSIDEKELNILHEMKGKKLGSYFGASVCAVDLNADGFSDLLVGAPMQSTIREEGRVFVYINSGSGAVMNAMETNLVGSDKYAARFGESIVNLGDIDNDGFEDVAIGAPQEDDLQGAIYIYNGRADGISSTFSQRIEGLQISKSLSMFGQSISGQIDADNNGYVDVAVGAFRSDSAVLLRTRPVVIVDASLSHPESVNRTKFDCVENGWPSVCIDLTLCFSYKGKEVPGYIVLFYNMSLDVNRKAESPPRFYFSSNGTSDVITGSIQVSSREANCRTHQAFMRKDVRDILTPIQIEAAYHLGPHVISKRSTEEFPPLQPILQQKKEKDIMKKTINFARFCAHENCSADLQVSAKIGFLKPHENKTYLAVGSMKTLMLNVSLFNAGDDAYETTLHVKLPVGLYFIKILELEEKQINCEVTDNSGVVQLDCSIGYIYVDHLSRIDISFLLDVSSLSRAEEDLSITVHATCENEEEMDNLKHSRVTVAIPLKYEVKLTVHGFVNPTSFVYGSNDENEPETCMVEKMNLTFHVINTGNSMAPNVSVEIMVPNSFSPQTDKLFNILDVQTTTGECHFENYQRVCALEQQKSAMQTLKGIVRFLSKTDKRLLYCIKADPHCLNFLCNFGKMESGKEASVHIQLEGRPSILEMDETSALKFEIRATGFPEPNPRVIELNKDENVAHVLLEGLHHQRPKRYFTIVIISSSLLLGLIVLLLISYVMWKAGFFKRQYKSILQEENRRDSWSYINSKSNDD
Chain of α4β7 integrin (P26010 20-798): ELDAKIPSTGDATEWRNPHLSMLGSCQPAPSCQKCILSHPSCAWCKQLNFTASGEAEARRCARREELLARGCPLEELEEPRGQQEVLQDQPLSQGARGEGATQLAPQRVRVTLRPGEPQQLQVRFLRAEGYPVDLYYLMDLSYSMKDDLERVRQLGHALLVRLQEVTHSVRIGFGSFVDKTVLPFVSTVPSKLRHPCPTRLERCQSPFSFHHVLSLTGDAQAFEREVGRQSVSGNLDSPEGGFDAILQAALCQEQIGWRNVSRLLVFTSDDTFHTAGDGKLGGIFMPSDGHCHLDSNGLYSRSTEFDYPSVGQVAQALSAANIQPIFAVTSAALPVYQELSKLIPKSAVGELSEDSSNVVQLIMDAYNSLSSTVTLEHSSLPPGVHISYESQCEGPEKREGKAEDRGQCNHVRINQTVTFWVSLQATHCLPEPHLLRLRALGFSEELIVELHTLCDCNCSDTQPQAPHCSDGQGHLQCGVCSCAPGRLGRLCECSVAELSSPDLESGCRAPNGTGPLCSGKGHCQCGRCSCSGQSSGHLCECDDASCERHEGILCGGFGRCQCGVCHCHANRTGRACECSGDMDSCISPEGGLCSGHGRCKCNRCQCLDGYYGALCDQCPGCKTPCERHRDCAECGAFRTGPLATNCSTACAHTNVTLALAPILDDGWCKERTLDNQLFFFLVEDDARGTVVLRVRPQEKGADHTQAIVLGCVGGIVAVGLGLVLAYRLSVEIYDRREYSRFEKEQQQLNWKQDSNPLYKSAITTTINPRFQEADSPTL

EC50	Structure (SMILES)
0.401 nM	Cc1cc(N2CCOC[C@H]2C(F)(F)F)cc(F)c1C(=O)N[C@@H](Cc1ccc(-n2c(=O)c3ccncc3n(C)c2=O)c2ncccc12)C(=O)O [Example 409]
0.1 nM	Cc1cc(N2CCOC[C@@H]2C(F)(F)F)cc(F)c1C(=O)N[C@@H](Cc1ccc(-n2c(=O)c3ncccc3n(C)c2=O)c2ncccc12)C(=O)O [Example 399, (S)-2-(2-fluoro-6-methyl-4-((R)-3-(trifluoromethyl)morpholino)benzamido)-3-(8-(1-methyl-2,4-dioxo-1,4-dihydropyrido[3,2-d]pyrimidin-3(2H)-yl)quinolin-5-yl)propanoic acid]
0.231 nM	Cn1c(=O)n(-c2ccc(C[C@H](NC(=O)c3c(F)cc(N4CCOC[C@@H]4C(F)(F)F)cc3F)C(=O)O)c3cccnc23)c(=O)c2cc(F)c(F)cc21 [Example 422]
1.31 nM	Cc1cc(C(F)(F)F)c(-c2ccc(C[C@H](NC(=O)c3c(F)cc(N4CCN(C)C[C@@H]4C(F)(F)F)cc3F)C(=O)O)c3cccnc23)c(=O)n1C (atropisomer, axis not shown) [Example 486]
0.094 nM	Cc1cc(N2CCOC[C@@H]2C(F)(F)F)cc(F)c1C(=O)N[C@@H](Cc1ccc(-n2c(=O)c3ccc(F)cc3n(C)c2=O)c2ncccc12)C(=O)O [Example 431]
0.261 nM	CN1CCc2c(cc(-c3ccc(C[C@H](NC(=O)c4c(F)cc(N5CCOC[C@@H]5C(F)(F)F)cc4F)C(=O)O)c4cccnc34)c(=O)n2C)C1 [Example 437]
0.233 nM	Cc1cc(C(F)(F)F)c(-c2ccc(C[C@H](NC(=O)c3c(F)cc(N4CCC[C@@H]4C(F)(F)F)cc3F)C(=O)O)c3cccnc23)c(=O)n1C (atropisomer, axis not shown) [Example 485]
0.08 nM	Cn1c(=O)n(-c2ccc(C[C@H](NC(=O)c3c(F)cc(N4CCOC[C@@H]4C(F)(F)F)cc3F)C(=O)O)c3cccnc23)c(=O)c2ccc(F)cc21 [Example 423]

same assay, conditions: Table 1; capture of α4β7 expressing RPM18866 cells on MadCAM-1 extracellular domain-coated plate

EC50	Structure (SMILES)
1.4 nM	Cn1cc(C(F)(F)F)cc(-c2ccc(C[C@H](NC(=O)c3c(F)cc(N4CCOC[C@@H]4C(F)(F)F)cc3F)C(=O)O)c3cccnc23)c1=O [Example 98, (S)-2-(2,6-difluoro-4-((R)-3-(trifluoromethyl)morpholino)benzamido)-3-(8-(1-methyl-2-oxo-5-(trifluoromethyl)-1,2-dihydropyridin-3-yl)quinolin-5-yl)propanoic acid]
18.1 nM	N#Cc1ccc(-c2ccc(C[C@H](NC(=O)c3c(F)cc(N4CCS(=O)(=O)CC4)cc3F)C(=O)O)c3cccnc23)c(Cl)c1 [Example 80, (S)-3-(8-(2-chloro-4-cyanophenyl)quinolin-5-yl)-2-(4-(1,1-dioxidothiomorpholino)-2,6-difluorobenzamido)propanoic acid]
0.7 nM	Cc1cc(Cl)c(-c2ccc(C[C@H](NC(=O)c3c(F)cc(N4CCOC[C@@H]4C(F)(F)F)cc3F)C(=O)O)c3cccnc23)c(=O)n1C [Example 100, (S)-3-(8-(4-chloro-1,6-dimethyl-2-oxo-1,2-dihydropyridin-3-yl)quinolin-5-yl)-2-(2,6-difluoro-4-((R)-3-(trifluoromethyl)morpholino)benzamido)propanoic acid]
0.3 nM	Cc1cc(C)n(C)c(=O)c1-c1ccc(C[C@H](NC(=O)c2c(F)cc(N3CCOC[C@@H]3C(F)(F)F)cc2F)C(=O)O)c2cccnc12 [Example 95, (S)-2-(2,6-difluoro-4-((R)-3-(trifluoromethyl)morpholino)benzamido)-3-(8-(1,4,6-trimethyl-2-oxo-1,2-dihydropyridin-3-yl)quinolin-5-yl)propanoic acid]
13.4 nM	CCOCc1cc(OC)c(-c2ccc(C[C@H](NC(=O)c3c(F)cc(C#N)cc3F)C(=O)O)c3cccnc23)c(OC)c1 [Example 42, (S)-2-(4-cyano-2,6-difluorobenzamido)-3-(8-(4-(ethoxymethyl)-2,6-dimethoxyphenyl)quinolin-5-yl)propanoic acid]
0.3 nM	CC[C@@H](Nc1cc(F)c(C(=O)N[C@@H](Cc2ccc(-c3c(C(F)(F)F)cc(C)n(C)c3=O)c3ncccc23)C(=O)O)c(F)c1)C(F)(F)F [Example 91, (S)-2-(2,6-difluoro-4-(((R)-1,1,1-trifluorobutan-2-yl)amino)benzamido)-3-(8-(1,6-dimethyl-2-oxo-4-(trifluoromethyl)-1,2-dihydropyridin-3-yl)quinolin-5-yl)propanoic acid]
4.6 nM	CCOCc1cc(OC)c(-c2ccc(C[C@H](NC(=O)c3c(F)cc(C(N)=O)cc3F)C(=O)O)c3cccnc23)c(OC)c1 [Example 43, (S)-2-(4-carbamoyl-2,6-difluorobenzamido)-3-(8-(4-(ethoxymethyl)-2,6-dimethoxyphenyl)quinolin-5-yl)propanoic acid]
1.8 nM	O=C(N[C@@H](Cc1ccc(-c2cccc3c2OCCC3)c2ncccc12)C(=O)O)c1c(F)cc(NS(=O)(=O)c2ccc(-c3ccnc(F)c3)cc2)cc1F [Example 62, (S)-3-(8-(chroman-8-yl)quinolin-5-yl)-2-(2,6-difluoro-4-((4-(2-fluoropyridin-4-yl)phenyl)sulfonamido)benzamido)propanoic acid]
0.4 nM	Cc1cc(C(F)(F)F)c(-c2ccc(C[C@H](NC(=O)c3c(F)cc(N4CCO[C@H](C)[C@@H]4C(F)(F)F)cc3F)C(=O)O)c3cccnc23)c(=O)n1C [Example 137, (S)-2-(2,6-difluoro-4-((2R,3R)-2-methyl-3-(trifluoromethyl)morpholino)benzamido)-3-(8-(1,6-dimethyl-2-oxo-4-(trifluoromethyl)-1,2-dihydropyridin-3-yl)quinolin-5-yl)propanoic acid]
19.3 nM	CCOCc1cc(OC)c(-c2ccc(C[C@H](NC(=O)c3c(F)cccc3F)C(=O)O)c3ccc(C)nc23)c(OC)c1 [Example 31, (S)-2-(2,6-difluorobenzamido)-3-(8-(4-(ethoxymethyl)-2,6-dimethoxyphenyl)-2-methylquinolin-5-yl)propanoic acid]
0.3 nM	CC[C@@H](Nc1cc(Cl)c(C(=O)N[C@@H](Cc2ccc(-c3c(C(F)(F)F)cc(C)n(C)c3=O)c3ncccc23)C(=O)O)c(Cl)c1)C(F)(F)F [Example 143, (S)-2-(2,6-dichloro-4-(((R)-1,1,1-trifluorobutan-2-yl)amino)benzamido)-3-(8-(1,6-dimethyl-2-oxo-4-(trifluoromethyl)-1,2-dihydropyridin-3-yl)quinolin-5-yl)propanoic acid]
20 nM	N#Cc1ccc(-c2ccc(C[C@H](NC(=O)c3c(F)cc(NS(=O)(=O)c4ccccc4)cc3F)C(=O)O)c3cccnc23)c(Cl)c1 [Example 46, (S)-3-(8-(2-chloro-4-cyanophenyl)quinolin-5-yl)-2-(2,6-difluoro-4-(phenylsulfonamido)benzamido)propanoic acid]

Structure (SMILES)	EC50
N#Cc1ccc(-c2ccc(C[C@H](NC(=O)c3c(F)cc(C(=O)O)cc3F)C(=O)O)c3cccnc23)c(Cl)c1 [Example 25, (S)-4-((1-carboxy-2-(8-(2-chloro-4-cyanophenyl)quinolin-5-yl)ethyl)carbamoyl)-3,5-difluorobenzoic acid]	3.3 nM

same assay, conditions: Table 2; capture of α4β7 expressing RPM18866 cells on MadCAM-1 extracellular domain-coated plate

EC50	Structure (SMILES)
0.3 nM	Cn1c(C2CC2)cc(C(F)(F)F)c(-c2ccc(C[C@H](NC(=O)c3c(F)cc(N4CCOC[C@@H]4C(F)(F)F)cc3F)C(=O)O)c3cccnc23)c1=O [Example 158]
0.5 nM	Cc1cc(C(F)(F)F)c(-c2ccc(C[C@H](NC(=O)c3c(F)cc(N4CC(C)OCC4C(F)(F)F)cc3F)C(=O)O)c3cccnc23)c(=O)n1C (stereo partly shown) [Example 171]
1.5 nM	Cc1cc(C)n(C)c(=O)c1-c1ccc(C[C@H](NC(=O)c2c(F)cc(N3CCCC[C@@H]3C(F)(F)F)cc2F)C(=O)O)c2cccnc12 [Example 202]
2.2 nM	Cc1cc(C(F)(F)F)c(-c2ccc(C[C@H](NC(=O)c3c(F)cc(N4CCCC[C@@H]4C(F)(F)F)cc3F)C(=O)O)c3cccnc23)c(=O)n1C (atropisomer, axis not shown) [Example 230]
13.8 nM	N#Cc1ccc(-c2ccc(C[C@H](NC(=O)c3c(Cl)cc4cc[nH]c4c3Cl)C(=O)O)c3cccnc23)c(Cl)c1 [Example 317]
1.4 nM	CCOc1ccnc(-c2ccc(C[C@H](NC(=O)c3c(F)cc(N4CCOC[C@@H]4C(F)(F)F)cc3F)C(=O)O)c3cccnc23)c1C(F)(F)F [Example 193]
77.9 nM	O=C(N[C@@H](Cc1ccc(NC(=O)c2c(Cl)cccc2Cl)c2ncccc12)C(=O)O)c1c(F)cccc1F [Example 239]
1.7 nM	COc1cnn(C)c(=O)c1-c1ccc(C[C@H](NC(=O)c2c(F)cc(N[C@H](C)C(F)(F)F)cc2F)C(=O)O)c2cccnc12 [Example 207]
5.8 nM	C[C@@H](Nc1cc(F)c(C(=O)N[C@@H](Cc2ccc(-c3c(Cl)cc(C#N)cc3Cl)c3ncccc23)C(=O)O)c(F)c1)C(F)(F)F [Example 288]
0.4 nM	Cc1c(Cl)cn(C)c(=O)c1-c1ccc(C[C@H](NC(=O)c2c(F)cc(N3CCOC[C@@H]3C(F)(F)F)cc2F)C(=O)O)c2cccnc12 [Example 165]
2.1 nM	Cc1cc(C(F)(F)F)c(-c2ccc(C[C@H](NC(=O)c3c(F)cccc3F)C(=O)O)c3cccnc23)c(=O)n1C [Example 218]
3.1 nM	Cc1cc(C(F)(F)F)c(-c2ccc(C[C@H](NC(=O)c3c(F)cc(N4CCOC[C@H]4CC(F)F)cc3F)C(=O)O)c3cccnc23)c(=O)n1C [Example 250]
4.8 nM	Cc1nc(C)c(-c2ccc(C[C@H](NC(=O)c3c(F)cc(N4CCOC[C@@H]4C(F)(F)F)cc3F)C(=O)O)c3cccnc23)nc1C [Example 274]
